Laboratory results published in patent US7304091B2, “Statin-like compounds” (Myco TeO A/S, priority 2001, dated 2007).

Tested on: male White rabbits
Experiment: Test of cholesterol-lowering effect in rabbits fed 1% cholesterol diet
Assay type: in vivo
Method: The cholesterol-lowering effect of Statan A was compared against a control in male White rabbits (purchased from Hvidesten, DK). The rabbits were housed in individual stainless steel cages with free access to water. The rabbits were divided into groups with similar baseline values of plasma cholesterol, which groups received: • 1) 5 mg/day PD498 (n=2)(Statan A), • 2) control group (n=4).
The rabbits were treated for 3 days. All animals were fed daily with 100 g of a standard rabbit diet (Altromin, Lage, Germany) containing 1% cholesterol. All test drugs were added to the diet. Remaining food were weighed.
Blood samples for cholesterol determination were drawn at baseline and at the three following days. Blood samples were taken from the marginal ear vein and the cholesterol determination was done the same day by enzymatic […] methods, using a commercially available kit (CHOD-PAP, Roche), on a COBAS MIRA auto-analyzer (Roche, Basle, CH).
Ten kg 1% cholesterol chow: 100 g cholesterol is dissolved in 500 g corn oil by heating to 40° C. […]

In the case of `Cc1ccc2cccc(O)c2c1CCC1CC(O)CC(=O)O1` (centres unmarked) [Statan A], the “Total plasma cholesterol levels compared to the control group” value (male White rabbits, 5 mg/day in 1% cholesterol diet, treated for 3 days, blood at baseline and three following days, FIG. 2) is reported as “consistently lower”.
With `Cc1ccc2ccccc2c1CC[C@@H]1C[C@@H](O)CC(=O)O1` [solistatin] the cholesterol-lowering effect (rabbits, same method as Example 13) was “had cholesterol-lowering effect”.
